ChEMBL document CHEMBL1141295, “Constituents of Ocimum sanctum with antistress activity” (J Nat Prod, 2007)
The source made the active and inactive calls.

How the values were obtained:
Assay type in all cases: functional, organism-based
Set-up in all cases: dose 40 mg/kg
[1] = system: Rattus norvegicus; assay: Increase in acute stress induced plasma creatine levels in Sprague-Dawley rat at 40 mg/kg, po
[2] = system: Rattus norvegicus; assay: Increase in acute stress induced adrenal gland weight in Sprague-Dawley rat at 40 mg/kg, po
[3] = system: Rattus norvegicus; assay: Increase in acute stress induced plasma corticosterone levels in Sprague-Dawley rat at 40 mg/kg, po
[4] = system: Rattus norvegicus; assay: Decrease in acute stress induced adrenal hypertrophy in Sprague-Dawley rat at 40 mg/kg, po
[5] = system: Rattus norvegicus; assay: Increase in acute stress induced glucose levels in Sprague-Dawley rat at 40 mg/kg, po

Measured: Activity

CCCCCCCCCCCCCCCCCC(=O)OC[C@H](CO[C@@H]1O[C@H](CO[C@H]2O[C@H](CO)[C@H](O)[C@H](O)[C@H]2O)[C@H](O)[C@H](O)[C@H]1O)OC(=O)CCCCCCCCCCCCC
active: [1] | [2] | [3]

CCCCCCCCCCCCCCCCCCCCCC(=O)O[C@H](COC(=O)CCCCCCCCCCCCCCC)CO[C@H]1O[C@H](CN)[C@@H](O)[C@H](O)[C@H]1O
active: all assays above

C=CCc1ccc(O[C@@H]2O[C@H](CO)[C@@H](O)[C@H](O)[C@H]2O)c(O)c1
active: all assays above
